Measured values published in PMC5366289 (Biochemistry, 2016).
Entries after “also recorded” stand apart in the source; their conditions may differ.

B1: colicin E1: 522-residue channel-forming colicin (protein, UniProt P02978 1-522, looked up)
Colicin-E1: METAVAYYKDGVPYDDKGQVIITLLNGTPDGSGSGGGGGKGGSKSESSAAIHATAKWSTAQLKKTQAEQAARAKAAAEAQAKAKANRDALTQRLKDIVNEALRHNASRTPSATELAHANNAAMQAEDERLRLAKAEEKARKEAEAAEKAFQEAEQRRKEIEREKAETERQLKLAEAEEKRLAALSEEAKAVEIAQKKLSAAQSEVVKMDGEIKTLNSRLSSSIHARDAEMKTLAGKRNELAQASAKYKELDELVKKLSPRANDPLQNRPFFEATRRRVGAGKIREEKQKQVTASETRINRINADITQIQKAISQVSNNRNAGIARVHEAEENLKKAQNNLLNSQIKDAVDATVSFYQTLTEKYGEKYSKMAQELADKSKGKKIGNVNEALAAFEKYKDVLNKKFSKADRDAIFNALASVKYDDWAKHLDQFAKYLKITGHVSFGYDVVSDILKIKDTGDWKPLFLTLEKKAADAGVSYVVALLFSLLAGTTLGIWGIAIVTGILCSYIDKNKLNTINEVLGI

Key:
[1] = Far-UV circular dichroism, helical content of T-domain peptides; format: physicochemical
TolC = TolC (Escherichia coli, UniProt P02930); conditions: BLM; concentration not given; listed as synthetic peptide 100–120
Chain of TolC (P02930 23-493): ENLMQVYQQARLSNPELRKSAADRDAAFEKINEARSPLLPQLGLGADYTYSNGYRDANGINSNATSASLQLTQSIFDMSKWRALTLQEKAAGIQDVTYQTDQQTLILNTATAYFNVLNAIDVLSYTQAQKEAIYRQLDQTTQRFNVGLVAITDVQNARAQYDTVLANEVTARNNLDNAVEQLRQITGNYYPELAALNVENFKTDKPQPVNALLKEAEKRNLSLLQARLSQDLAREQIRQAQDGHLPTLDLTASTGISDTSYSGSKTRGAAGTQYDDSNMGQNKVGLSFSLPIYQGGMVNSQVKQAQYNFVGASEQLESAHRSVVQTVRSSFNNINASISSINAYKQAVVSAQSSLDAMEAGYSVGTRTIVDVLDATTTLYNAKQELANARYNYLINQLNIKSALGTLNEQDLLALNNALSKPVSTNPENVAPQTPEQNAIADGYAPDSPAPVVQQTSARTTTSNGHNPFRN

E. coli cells = conditions: ref K. S. Jakes, unpublished data; listed as T100–120; cited from earlier work
[2] = system: E. coli, TolC Gly43 mutants; conditions: cited from earlier work
[3] = cytoplasmic membrane; cited from earlier work

| Molecule | no. of residues, helix ([1]; from helical content by far-UV CD, DichroWeb, tags assumed unordered) | no. of residues, unordered ([1]; total number in peptide excluding tags minus residues in helices) | occlusion of TolC channels, in words (TolC) | protection of E. coli cells against colicin E1 cytotoxicity (E. coli cells) | killing efficiency of colicin E1 on TolC Gly43 mutants ([2]; larger side chains at TolC residue 43) | decrease in colicin E1 cytotoxicity by TolC G43 mutation ([2]; mutation to residue with larger side chains) | channel conductance [3] |
| --- | --- | --- | --- | --- | --- | --- | --- |
| H-EALRHNASRTPSATELAHANN-OH [100–120 ^e] | 0 residues | 21 residues | did not occlude TolC channels | inability of the synthetic peptide T100–120, which lacks ordered secondary structure, to occlude TolC channels, and to protect E. coli cells; also recorded: does not protect E. coli cells |  |  |  |
| B1 |  |  |  |  | reduced the killing efficiency | ≤ 1000 -fold | approximately 10^6 ions/s per channel |
